Among the test systems are UACC-62 melanoma; PC-3 prostate; SNB-19 CNS; LOX IMVI melanoma; SN12C renal; COLO 205 colon; SK-MEL-5 melanoma; HCT-15 colon; ACHN renal; SNB-75 CNS.
What all share (test): DTP human tumour cell line panel, 48 h

Where “and” joins values, the source holds several entries; their conditions need not be identical. Equal values may be shown once.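 Dose response: 5 concentrations. Exposure: 48 h. Format: 96-well plates. Endpoint: linear interpolation; highest concentration if not reached. Here, GI50 denotes the concentration required for 50% inhibition of growth. Definition used: TGI = concentration required for complete inhibition of growth.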

`CC(=O)C(O)N1C(=O)C=CC1=O` (stereo not given): the values for the GI50 with UACC-62 melanoma and in the test with PC-3 prostate were 7170 µM and 2470 µM, respectively.

Take `Cc1sc(Cc2ccccc2)nc1-c1ccc(N)cc1`: the concentration for total growth inhibition (TGI) (as a rule, the concentration at which net growth stops) is more than 100 µM in the test with SNB-19 CNS; 29.8 µM with LOX IMVI melanoma; 40.2 µM in the test with SN12C renal; 37.8 µM with UACC-62 melanoma; 89.7 µM in the test with PC-3 prostate; 56.2 µM with COLO 205 colon. In addition, the TGI in the test with SK-MEL-5 melanoma was 35.6 µM; in the test with HCT-15 colon, 46.9 µM; in the test on ACHN renal, more than 100 µM.

With `NC(=O)CCCC(NCc1c2ccccc2nc2ccccc12)C(=O)O` (stereo not given), the TGI in the test on LOX IMVI melanoma, in the test with SNB-75 CNS, in the test on SN12C renal, in the test on COLO 205 colon, in the test with SK-MEL-5 melanoma and in the test on HCT-15 colon was more than 100 µM throughout. Also, the TGI with ACHN renal was more than 100 µM.

Turning to `O=S(=O)(Sc1ccc(Cl)cc1)c1ccc(Cl)cc1`, the TGI in the test on SNB-19 CNS turned out to be 65 µM; with LOX IMVI melanoma, 24.8 µM; in the test on SNB-75 CNS, 40.5 µM; in the test on SN12C renal, 25.4 µM; with UACC-62 melanoma it was 31.4 µM; in the test on COLO 205 colon, 31.8 µM. Moreover, the TGI in the test with SK-MEL-5 melanoma came out at 28.6 µM; with HCT-15 colon, 40.2 µM; with ACHN renal it was 31.2 µM.

For the compound `CC1C(O)C2(Oc3cc4c(c5c3[C@@H](CC5O)[C@H]2C)CCC2Cc3nc5c(nc3C[C@@]42C)CC2CCC3C4=C[C@H]6O[C@@]7(O[C@@](C)(CO)C[C@@H]7O)C(C)[C@@]6(O)[C@]4(C)[C@@H](O)CC3[C@]2(C)C5)OC1(C)C` (stereo not given in full), the TGI is 0.892 µM with LOX IMVI melanoma; 0.0842 µM in the test on SNB-75 CNS; more than 3.67 µM in the test with SN12C renal; 0.231 µM in the test on UACC-62 melanoma; 0.609 µM in the test with COLO 205 colon; more than 3.67 µM in the test with SK-MEL-5 melanoma. In the test on HCT-15 colon, this compound returned a TGI of more than 3.67 µM.

As to `O=NC1C(Cl)C2CC1C1C(Br)C(Br)CC21` (stereo not given), the TGI in the test with SNB-19 CNS, in the test with LOX IMVI melanoma, with SNB-75 CNS, in the test with SN12C renal, in the test on UACC-62 melanoma and in the test on PC-3 prostate was more than 100 µM each time. Moreover, the TGI with COLO 205 colon, in the test on SK-MEL-5 melanoma, in the test on HCT-15 colon and with ACHN renal was more than 100 µM throughout.

In the case of `N#CC(c1ccccc1)c1nc2ccc(=N)cc-2n(O)c1C(C#N)c1ccccc1` (stereo not given), the TGI in the test with SNB-19 CNS, in the test on LOX IMVI melanoma, in the test on SN12C renal, in the test on UACC-62 melanoma, in the test on COLO 205 colon and in the test on HCT-15 colon was more than 100 µM each time. Moreover, the TGI in the test with ACHN renal is more than 100 µM.

As to `CN1CCCCC1CCN1CCCCC1` (stereo not given), the TGI in the test on SNB-19 CNS, in the test on LOX IMVI melanoma, in the test with SNB-75 CNS, in the test with SN12C renal, in the test with UACC-62 melanoma and with PC-3 prostate was more than 100 µM in each case. For the same compound, the TGI with COLO 205 colon, in the test with SK-MEL-5 melanoma, with HCT-15 colon and in the test with ACHN renal was more than 100 µM throughout.

In the case of `CN(C)CCNc1nc(-c2ccc3ccccc3c2)nc2nc[nH]c12`, the TGI is 28.1 µM in the test with SNB-19 CNS; 18.8 µM in the test on LOX IMVI melanoma; 4.44 µM in the test with SNB-75 CNS; 26.3 µM in the test on SN12C renal; 22.9 µM in the test on UACC-62 melanoma; 18.4 µM in the test on PC-3 prostate. Moreover, the TGI was found to be 21.7 µM in the test with COLO 205 colon, 25 µM in the test with SK-MEL-5 melanoma, 18.3 µM in the test on HCT-15 colon and 11.9 µM in the test on ACHN renal.

Regarding `CN(C)c1ccc(/C=N\NC(=O)CSCC(=O)N/N=C/c2ccc(N(C)C)cc2)cc1`, the TGI in the test on SNB-19 CNS, in the test with LOX IMVI melanoma, with SNB-75 CNS, with SN12C renal, with UACC-62 melanoma and in the test with PC-3 prostate was more than 100 µM each time. Also, the TGI in the test on COLO 205 colon is more than 100 µM; in the test with SK-MEL-5 melanoma, more than 100 µM; in the test with HCT-15 colon, 53.2 µM; in the test with ACHN renal it was more than 100 µM.

With `CC12CCC(C(=O)OC1=O)C(C)(C)O2` (stereo not given), the concentration for total growth inhibition (TGI) with SNB-19 CNS, in the test with LOX IMVI melanoma, in the test on SNB-75 CNS, with SN12C renal, with UACC-62 melanoma and in the test with PC-3 prostate was more than 100 µM throughout. Moreover, the TGI with COLO 205 colon, with SK-MEL-5 melanoma and in the test with ACHN renal was more than 100 µM each time.

With `Cc1cc(NCc2cc(Nc3ccnc4cc(Cl)ccc34)ccc2F)nc(N2CCCC2)n1`, in the test on SNB-19 CNS, the GI50 (in general, the concentration at which growth is held to half of that of the control) was 2.82 µM and the TGI came to 10.1 µM. Besides, in the test with SK-MEL-5 melanoma, the GI50 is 1.76 µM and the TGI was found to be 3.19 µM.

With `Cc1c2cc[n+](CCN3CCCCC3)cc2c(C)c2c1[nH]c1ccc(O)cc12`, the GI50 in the test with SNB-19 CNS was 1.96 µM; in the test with LOX IMVI melanoma it was 8.69 µM; in the test on SNB-75 CNS it was 2.7 µM; in the test on SN12C renal it was 0.16 µM; with UACC-62 melanoma, 11.4 µM; in the test with COLO 205 colon, 2.57 µM. In addition, the TGI is 10.2 µM and 29.1 µM with SNB-19 CNS; 58.2 µM and 76.2 µM in the test on LOX IMVI melanoma; 5.4 µM and 18.7 µM in the test with SNB-75 CNS; 20.8 µM and 6.03 µM in the test with SN12C renal; 36.7 µM and 31.2 µM with UACC-62 melanoma; 28.6 µM with PC-3 prostate. Moreover, the TGI is 27.5 µM and > 24.2 µM with COLO 205 colon; 31.2 µM and 11.1 µM in the test with SK-MEL-5 melanoma; 75 µM and > 100 µM in the test on HCT-15 colon; 22.9 µM with ACHN renal.

Values taken from PubChem BioAssay (NCI).
